{"source": "patent US20140272041A1", "about": "“METHODS OF REDUCING PATHOGENS DURING PROCESSING OR POST-PROCESSING OF BEEF, POULTRY AND OTHER MEAT PRODUCTS” (BIRKO Corporation, priority 2009, published 2014)", "format_in_all_cases": "cell-based, Escherichia coli", "key": {"[1]": {"test_system": "E. coli ATCC 43888 (O157:H7)", "experiment": "Log kill in aqueous bacterial suspension, plating on TSA", "settings": "73 deg. F."}, "E. coli SAC-2": {"test_system": "E. coli SAC-2", "experiment": "Log kill / surviving titer in aqueous bacterial suspension, plating on TSA", "settings": "for Log Kill […] Lactic Acid: 75 degrees F.; for Log Kill: sulfate; for cfu per ml: 75 deg. F. (0.00 control 4.18E+07)", "experimental": "In each instance a target sample was employed using approximately 50 micro liters of an SAC-2 culture. E. coli “SAC-2,” was a Gram-negative strain isolated from municipal sewage. The tests were performed at room temperature, i.e., 75 deg. F. […] The results of each test sample were evaluated using a series of 10-fold dilutions as needed to determine, on a standard plating agar (TSA), the titer of bacteria that survived the antimicrobial treatment.\nThe same procedure was employed as in Example 2, but the only agent added to the target solution was Niaproof 08. No lactic acid was employed.\nThe mixture was then diluted and plated as previously described.\nIncreasing amounts of reagent were added to a series of test tubes. […] The bacterial titer of each mixture was determined by preparation and plating of serial dilutions on TSA.\n[…] […] The amphoteric and zwitterionic surfactants, which carry a net positive charge under the conditions of the reaction mixture, caused enhancement of the log kill by lactic acid. All anionic surfactants tested caused substantial enhancement of the log kill by lactic acid."}, "E. coli ATCC 12435": {"test_system": "E. coli ATCC 12435", "experiment": "Log kill / surviving titer in aqueous bacterial suspension, plating on TSA", "settings": "for cfu per ml: no lactic acid (0.00 control 3.41E+07)", "experimental": "The “reaction” (i.e. interaction of antimicrobial agent and the target organism) was initiated by the addition of bacteria to the antimicrobial solution. The reaction was allowed to proceed for the respective time periods listed in Table I (i.e., at least 15 seconds each) and was terminated at the end of that time by adding quench buffer comprising 3.2 M potassium phosphate buffer, pH 7.2. The sample then was evaluated using serial 10-fold dilutions into sterile phosphate buffer as needed to determine, on Tryptic Soy agar (“TSA”), the titer of surviving bacteria. TSA is a medium that allows the growth of most bacteria.\nThe reduction in the bacterial count is expressed as the “log kill” which is defined as log10 [initial cfu/ml]−log10 [remaining cfu/ml]; where “cfu” refers to “colony forming unit.” All log kills reported herein are positive “base 10.”). Inasmuch as the standard assay mixture contained only ca. 25×10^6 cfu initially (equivalent to 7.398 log) the theoretical maximum kill that can be measured with this assay system is ca. 7.4 log and the practical measuring limit is ca. 6 log. Therefore, high levels of log reduction were monitored by plating reaction mixtures directly (without dilution) onto agar medium. The results are reported in Table I and illustrated in graph format in FIG. 1. […] The tests were replicated with E. coli ATCC 43888, a pathogenic strain of E. coli O157:H7. […]\nAfter incubation for 15 seconds at ambient temperature the reaction was quenched by addition of phosphate buffer and the titer of surviving bacteria was determined by plating on TSA as described in the previous examples. […] The amphoteric and zwitterionic surfactants, which carry a net positive charge under the conditions of the reaction mixture, caused enhancement of the log kill by lactic acid. All anionic surfactants tested caused substantial enhancement of the log kill by lactic acid."}, "E. coli ATCC 43888": {"test_system": "E. coli ATCC 43888", "experiment": "Reaction mixture streak plate, visual observation", "settings": "room temperature", "experimental": "The tests were performed at room temperature."}, "[2]": {"settings": "Niaproof 08 0.02 wt./wt. % in 2.5 wt. % lactic acid"}, "[3]": {"settings": "Niaproof 08 0.04 wt./wt. % in 2.5 wt. % lactic acid"}, "[4]": {"settings": "Niaproof 08 0.06 wt./wt. % in 2.5 wt. % lactic acid"}, "[5]": {"settings": "Niaproof 08 0.10 wt./wt. % in 2.5 wt. % lactic acid"}}, "note": "Several values for one entry are separate records, joined by “and”; a condition that tells them apart may be missing. Equal entries are not always repeated."}
{"compound": "CCCCC(CC)COS(=O)(=O)[O-].[Na+]", "note": "(centres unmarked) [Niaproof 08, sodium 2-ethylhexyl sulfate]", "values": [{"measurement": "+Niaproof 08 (Log Kill)", "setting": "[1]; 2.5% lactic acid + Niaproof 08, pH 2.19, 20 secs.", "value": 5.75, "unit": "log"}, {"measurement": "+Niaproof 08 (Log Kill)", "setting": "[1]; 2.5% lactic acid + Niaproof 08, pH 2.42, 20 secs.", "value": 3.17, "unit": "log"}, {"measurement": "+Niaproof 08 (Log Kill)", "setting": "[1]; 2.5% lactic acid + Niaproof 08, pH 2.59, 20 secs.", "value": 3.81, "unit": "log"}, {"measurement": "+Niaproof 08 (Log Kill)", "setting": "[1]; 2.5% lactic acid + Niaproof 08, pH 2.74, 20 secs.", "value": 4.94, "unit": "log"}, {"measurement": "+Niaproof 08 (Log Kill)", "setting": "[1]; 2.5% lactic acid + Niaproof 08, pH 2.86, 20 secs.", "value": 5.01, "unit": "log"}, {"measurement": "+Niaproof 08 (Log Kill)", "setting": "[1]; 2.5% lactic acid + Niaproof 08, pH 3.24, 20 secs.", "value": 0, "unit": "log"}, {"measurement": "+Niaproof 08 (Log Kill)", "setting": "[1]; 2.5% lactic acid + Niaproof 08, pH 3.67, 20 secs.", "value": 0, "unit": "log"}, {"measurement": "Log Kill […] Lactic Acid", "setting": "E. coli SAC-2; Niaproof 08 0.02 % wt./wt. in […] lactic acid, 15 seconds", "value": 0.575, "unit": "log"}, {"measurement": "Enhancement Factor (log10 kill with lactic acid and surfactant divided by log10 kill with lactic acid only)", "setting": "E. coli SAC-2; [2]", "value": 2.37}, {"measurement": "Log Kill", "setting": "E. coli SAC-2; Niaproof 08 0.02 wt./wt. % in 2.5 wt. % lactic acid, 15 seconds, room temperature", "value": "1.08 log and 1.080 log"}, {"measurement": "Log Kill […] Lactic Acid", "setting": "E. coli SAC-2; Niaproof 08 0.04 % wt./wt. in […] lactic acid, 15 seconds", "value": 1.060, "unit": "log"}, {"measurement": "Enhancement Factor (log10 kill with lactic acid and surfactant divided by log10 kill with lactic acid only)", "setting": "E. coli SAC-2; [3]", "value": 3.82}, {"measurement": "Log Kill", "setting": "E. coli SAC-2; Niaproof 08 0.04 wt./wt. % in 2.5 wt. % lactic acid, 15 seconds, room temperature", "value": "1.74 log and 1.740 log"}, {"measurement": "Log Kill […] Lactic Acid", "setting": "E. coli SAC-2; Niaproof 08 0.06 % wt./wt. in […] lactic acid, 15 seconds", "value": 1.011, "unit": "log"}, {"measurement": "Log Kill […] Lactic Acid", "setting": "E. coli SAC-2; Niaproof 08 0.08 % wt./wt. in […] lactic acid, 15 seconds", "value": 2.110, "unit": "log"}, {"measurement": "Enhancement Factor (log10 kill with lactic acid and surfactant divided by log10 kill with lactic acid only)", "setting": "E. coli SAC-2; Niaproof 08 0.08 wt./wt. % in 2.5 wt. % lactic acid", "value": 10.5}, {"measurement": "Log Kill", "setting": "E. coli SAC-2; Niaproof 08 0.08 wt./wt. % in 2.5 wt. % lactic acid, 15 seconds, room temperature", "value": "4.8 log and 4.800 log"}, {"measurement": "Log Kill […] Lactic Acid", "setting": "E. coli SAC-2; Niaproof 08 0.10 % wt./wt. in […] lactic acid, 15 seconds", "value": 2.770, "unit": "log"}, {"measurement": "Log Kill […] Lactic Acid", "setting": "E. coli SAC-2; Niaproof 08 0.12 % wt./wt. in […] lactic acid, 15 seconds", "value": 2.820, "unit": "log"}, {"measurement": "Enhancement Factor (log10 kill with lactic acid and surfactant divided by log10 kill with lactic acid only)", "setting": "E. coli SAC-2; Niaproof 08 0.12 wt./wt. % in 2.5 wt. % lactic acid", "value": 13.4}, {"measurement": "Log Kill", "setting": "E. coli SAC-2; Niaproof 08 0.12 wt./wt. % in 2.5 wt. % lactic acid, 15 seconds, room temperature", "value": "6.1 log and 6.100 log"}, {"measurement": "Enhancement Factor (log10 kill with lactic acid and surfactant divided by log10 kill with lactic acid only)", "setting": "E. coli SAC-2; Niaproof 08 0.16 wt./wt. % in 2.5 wt. % lactic acid", "value": 13.4}, {"measurement": "Log Kill", "setting": "E. coli SAC-2; Niaproof 08 0.16 wt./wt. % in 2.5 wt. % lactic acid, 15 seconds, room temperature", "value": "6.1 log and 6.100 log"}, {"measurement": "Log Kill […] Lactic Acid", "setting": "E. coli SAC-2; Niaproof 08 0.20 % wt./wt. in […] lactic acid, 15 seconds", "value": 5.980, "unit": "log"}, {"measurement": "Enhancement Factor (log10 kill with lactic acid and surfactant divided by log10 kill with lactic acid only)", "setting": "E. coli SAC-2; Niaproof 08 0.20 wt./wt. % in 2.5 wt. % lactic acid", "value": 13.4}, {"measurement": "Log Kill", "setting": "E. coli SAC-2; Niaproof 08 0.20 wt./wt. % in 2.5 wt. % lactic acid, 15 seconds, room temperature", "value": "~6 log and 6.1 log and 6.100 log"}, {"measurement": "Log Kill […] Lactic Acid", "setting": "E. coli SAC-2; Niaproof 08 […] wt./wt. in […] lactic acid, 15 seconds", "value": 5.980, "unit": "log"}, {"measurement": "elimination of detectable E. coli", "setting": "E. coli SAC-2; Niaproof 08 above about 0.2 wt./wt. % in 2.5 wt. % lactic acid, 15 seconds, room temperature", "value": "complete elimination of detectable E. coli"}, {"measurement": "cfu per ml", "setting": "E. coli SAC-2; Niaproof 08 alone 0.02 % wt./wt., no lactic acid, 15 seconds", "value": "4.05E+07", "unit": "cfu per ml"}, {"measurement": "cfu per ml", "setting": "E. coli SAC-2; Niaproof 08 alone 0.06 % wt./wt., no lactic acid, 15 seconds", "value": "3.63E+07", "unit": "cfu per ml"}, {"measurement": "cfu per ml", "setting": "E. coli SAC-2; Niaproof 08 alone 0.14 % wt./wt., no lactic acid, 15 seconds", "value": "4.25E+07", "unit": "cfu per ml"}, {"measurement": "cfu per ml", "setting": "E. coli SAC-2; Niaproof 08 alone 0.20 % wt./wt., no lactic acid, 15 seconds", "value": "4.15E+07", "unit": "cfu per ml"}, {"measurement": "antimicrobial effect of Niaproof 08 by itself", "setting": "E. coli SAC-2; no lactic acid, up to 0.20 % wt./wt., 15 seconds", "value": "no antimicrobial effect"}, {"measurement": "Log Kill (Lactic Acid + Surfactant)", "setting": "E. coli SAC-2; surfactant 0.2% in 2.5% lactic acid, 15 seconds, 74 to 80 degrees F.", "value": 4.08, "unit": "log"}, {"measurement": "Log Kill (Lactic Acid + Surfactant)", "setting": "E. coli ATCC 12435; 0.1% Niaproof 08 in 2.5% lactic acid, 15 seconds, 83 degrees F.", "value": 6.54, "unit": "log"}, {"measurement": "Enhancement Factor", "setting": "E. coli ATCC 12435; [2]", "value": 1.52}, {"measurement": "Log Kill", "setting": "E. coli ATCC 12435; [2]", "value": 3.469, "unit": "log"}, {"measurement": "Enhancement Factor", "setting": "E. coli ATCC 12435; [3]", "value": 1.43}, {"measurement": "Log Kill", "setting": "E. coli ATCC 12435; [3]", "value": 3.259, "unit": "log"}, {"measurement": "Enhancement Factor", "setting": "E. coli ATCC 12435; [4]", "value": 2.79}, {"measurement": "Log Kill", "setting": "E. coli ATCC 12435; [4]", "value": 6.367, "unit": "log"}, {"measurement": "Enhancement Factor", "setting": "E. coli ATCC 12435; [5]", "value": 2.86}, {"measurement": "Log Kill", "setting": "E. coli ATCC 12435; [5]", "value": 6.539, "unit": "log"}, {"measurement": "cfu per ml", "setting": "E. coli ATCC 12435; Niaproof 08 alone 0.02 % wt./wt.", "value": "3.41E+07", "unit": "cfu per ml"}, {"measurement": "cfu per ml", "setting": "E. coli ATCC 12435; Niaproof 08 alone 0.06 % wt./wt.", "value": "3.43E+07", "unit": "cfu per ml"}, {"measurement": "cfu per ml", "setting": "E. coli ATCC 12435; Niaproof 08 alone 0.14 % wt./wt.", "value": "3.56E+07", "unit": "cfu per ml"}, {"measurement": "cfu per ml", "setting": "E. coli ATCC 12435; Niaproof 08 alone 0.20 % wt./wt.", "value": "3.04E+07", "unit": "cfu per ml"}, {"measurement": "Description/Observation", "setting": "E. coli ATCC 43888; Niaproof 08 0.02 % wt./wt. in 2.5 wt. % lactic acid", "value": "Extensive bacterial growth."}, {"measurement": "Description/Observation", "setting": "E. coli ATCC 43888; Niaproof 08 0.04 % wt./wt. in 2.5 wt. % lactic acid", "value": "No bacterial growth."}, {"measurement": "Description/Observation", "setting": "E. coli ATCC 43888; Niaproof 08 0.06 % wt./wt. in 2.5 wt. % lactic acid", "value": "No bacterial growth."}, {"measurement": "Description/Observation", "setting": "E. coli ATCC 43888; Niaproof 08 0.08 % wt./wt. in 2.5 wt. % lactic acid", "value": "No bacterial growth."}, {"measurement": "Description/Observation", "setting": "E. coli ATCC 43888; Niaproof 08 0.10 % wt./wt. in 2.5 wt. % lactic acid", "value": "No bacterial growth."}, {"measurement": "concentration of surfactant at which all bacteria added were killed", "setting": "E. coli ATCC 43888; in 2.5 wt. % lactic acid", "value": "≥ 0.04", "unit": "%"}]}
